For one assay, the system named is Ins2Akita/+ mice. The assay is described as follows: Serum glucose (hyperglycemia) monitoring in Ins2Akita/+ diabetic mice fed HPR-supplemented diet. It counts as in vivo, mouse. The note with it: diet containing HPR 0.1% w/w ad libitum, glucose at 7-day intervals (FIG. 1B). The procedure: (§1) Ins2Akita littermates (aged 2-5 months) were divided into two groups. One group received a specialized rodent diet containing HPR (0.1%, w/w). The second group received a rodent chow which was not supplemented with HPR. Mice ingested these diets ad libitum for 3 months (except where indicated). Serum retinol and glucose levels were regularly monitored throughout the treatment period. At the end of the treatment period, the mice were euthanized and eyecups were prepared for biochemical and immunohistochemical analyses.
(§2) Serum levels of retinol at day 30 (panel A) and glucose at 7-day intervals (panel B) are shown. The dashed line in panel B indicates mean glucose levels in wild-type mice.

In another assay the test system is ganglion cell layer. The assay is described as follows: Retinal histology (toludine blue staining) of ganglion cell layer in Ins2Akita/+ mice. It counts as in vivo, mouse. The note with it: HPR diet 0.1% w/w. Here is the method: as §1
(§3) Panels A and D are from Ins2Akita/+ mice fed the control diet. Panels B and E are from Ins2/Akita/+ mice fed the HPR-supplemented diet. Panels C and E are from age-matched wild-type mice. Arrows in panels A and D show disruption of the GCL and RAGE immunoreactivity.

The next assay relates to VLDLR-/- knockout mice. The assay is described as follows: Retinal vascular leakage in VLDLR-/- knockout mice (retinal neovascularization model). It counts as in vivo, mouse. The conditions noted are these: 0.1% HPR (w/w) chow 8 weeks, retinal flat mounts after FITC-dextran perfusion (FIG. 8). An excerpt: (§4) We set out to directly test the angiogenic properties of HPR in three different models of ocular angiogenesis. In the first, we induced angiogenesis in vitro by exposing primary human retinal microvascular endothelial cells to growth factors in the tube formation assay. Second, we utilized slow release pellets containing growth factor to induce angiogenesis in the corneal micropocket assay. Next, we looked at the effect of HPR treatment on angiogenesis in a transgenic animal model of early-onset retinal neovascularization, the very-low-density lipoprotein receptor (VLDLR) knockout mouse (vldlr−/−).
VLDLR^−/− mice were fed either control or 0.1% HPR (w/w)-supplemented chow ad libitum for 8 weeks. The extent of retinal leakage was then assessed in retinal flat mounts after FITC-dextran perfusion.

For another assay, the system named is RAGE. Briefly: RAGE immunoreactivity in retina tissue sections of Ins2Akita/+ mice. It counts as in vivo, mouse. The note with it: HPR diet 0.1% w/w, 3 months (FIG. 2). Here is the method: as §1, §3
Another assay has as its system serum RBP-retinol. Briefly: Serum retinol monitoring in Ins2Akita/+ diabetic mice fed HPR-supplemented diet. The conditions noted are these: diet containing HPR 0.1% w/w ad libitum, retinol at day 30 (FIG. 1A). It counts as in vivo, mouse. The procedure: as §1, §2
The test system of another assay is VEGF. The assay is described as follows: VEGF expression in retina of Ins2Akita/+ mice. It counts as in vivo, mouse. The conditions noted are these: HPR diet 0.1% w/w, 3 months (FIG. 5). Here is the method:
as §1

The test system of assay [1] is advanced glycation end products (AGEs). Briefly: AGE immunoreactivity in retina tissue sections of Ins2Akita/+ mice. It counts as in vivo, mouse. The note with it: HPR diet 0.1% w/w, 3 months (FIG. 3). The procedure:
as §1

In another assay the test system is phosphorylated p38 MAPK. Briefly: Phosphorylated p38 MAPK immunoreactivity in RPE of Ins2Akita/+ mice. It counts as in vivo, mouse. The conditions noted are these: HPR diet 0.1% w/w, 3 months (FIG. 4). The procedure:
as §1
Tissue sections from these mice were probed for phosphorylated p38 MAPK, a mediator of apoptotic cell death.

For assay [2], the system named is primary human retinal microvascular endothelial cells. Briefly: In vitro capillary tube formation assay. The note with it: HPR 10 mM; VEGF 10 ng/ml pretreatment; cells on Cultrex BME in 0.1% FBS (FIG. 6). It counts as cell-based.
Excerpt: as §4
In parallel experiments, cells were pretreated with VEGF (10 ng/ml) and HPR ([…]) respectively. The cells were then plated in 0.1% FBS or 0.1% FBS-[…] HPR.

The next assay has as its system wild type Balb/c mice. The assay is described as follows: In vivo corneal micropocket assay (bFGF pellets). The note with it: 0.1% (w/w) HPR chow 8 weeks, bFGF ~80 ng/pellet, assessed 5 days later, FITC-dextran (FIG. 7). Also on record: species or system mouse.
Excerpt: as §4
At the end of this period, standardized slow release pellets containing bFGF (˜80 ng/pellet) were surgically inserted into the normally avascular corneas of the mice in the study. Blank pellets were implanted in the left eye. Vessel formation was assessed 5 days later when the mice were perfused with FITC-dextran and the eyes were enucleated and photographed. FIG. 7: Bright field (A-F) and fluorescence (G-L) images showing vessel growth (arrows) and the approximate location of the pellets (ovals).

Turning to `CC1=C(/C=C/C(C)=C/C=C/C(C)=C/C(=O)Nc2ccc(O)cc2)C(C)(C)CCC1` [HPR, N-(4-hydroxyphenyl)retinamide], the “effect on hyperglycemia (serum glucose)” value in the assay on Ins2Akita/+ mice is listed as “has no effect”. Besides, the “preservation of ganglion cell layer and inner nuclear layer” value in the assay on ganglion cell layer (3 months (FIG. 5)) was “remarkable preservation”. The “integrity of the ganglion cell layer (GCL)” value in the assay with ganglion cell layer (3 months, toludine blue staining (FIG. 2)) was “well preserved”. Also, in the assay on VLDLR-/- knockout mice, the “extent of retinal vascular leakage” value is “significant reduction”. Also, in the assay on RAGE, the “RAGE immunoreactivity in the GCL” value is recorded as “very little”. The “serum RBP-retinol” value in the assay on serum RBP-retinol was “significantly reduces”. Besides, the “VEGF expression in all retina sublayers” value with VEGF was “dramatically reduced”. The “AGE immunoreactivity in the retina” value in assay [1] was “significantly reduced”. Further, in the assay with phosphorylated p38 MAPK, the “p38 MAPK immunoreactivity in the RPE” value is listed as “barely detectable”. The tube formation entry in [2] was “reduced”. In the assay on wild type Balb/c mice, the “bFGF-induced corneal vessel growth (angiogenic response)” value is reported as “striking reduction”.
